According to ChEMBL document CHEMBL1201862, “PubChem BioAssay data set” (2004):
Activity calls are given as the source filed them.

Experiments:
[1] = target: T1, Sentrin-specific protease 8 (Homo sapiens, UniProt Q96LD8); type: functional;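 further: luminescence read-out of SENP8 inhibition, dose-response confirmation following an ultra-high-throughput screen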
T1 sequence (Q96LD8 whole entry): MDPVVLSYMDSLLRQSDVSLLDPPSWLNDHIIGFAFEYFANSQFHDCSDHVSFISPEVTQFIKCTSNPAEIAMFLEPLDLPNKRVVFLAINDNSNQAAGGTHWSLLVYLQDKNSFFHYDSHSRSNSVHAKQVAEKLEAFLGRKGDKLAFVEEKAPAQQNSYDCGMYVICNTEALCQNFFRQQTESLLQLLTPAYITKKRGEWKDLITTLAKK

SUMO-activating enzyme = SUMO-activating enzyme (Homo sapiens, UniProt Q9UBT2); assay: blockers of SAE1/SAE2–UBC9 SUMO transfer – biochemical, HTRF, uHTS, primary screen (AID 2006); type: protein-complex assay
Caspase-6 = target: T2, Caspase-6 (Homo sapiens, UniProt P55212); assay: inhibition of CASP6 peptide cleavage – biochemical, VEID-R110 fluorescence, cherry-pick, dose response (AID 720632)
T2 sequence (P55212 whole entry): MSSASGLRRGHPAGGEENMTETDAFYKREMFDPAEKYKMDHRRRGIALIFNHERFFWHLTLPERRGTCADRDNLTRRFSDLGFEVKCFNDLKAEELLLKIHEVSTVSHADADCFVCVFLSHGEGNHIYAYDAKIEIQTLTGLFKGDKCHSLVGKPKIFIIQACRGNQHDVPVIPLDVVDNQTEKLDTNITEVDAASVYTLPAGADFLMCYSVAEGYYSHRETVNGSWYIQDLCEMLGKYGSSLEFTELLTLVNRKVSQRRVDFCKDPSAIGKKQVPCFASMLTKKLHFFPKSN

[2] = HepG2 cell cytotoxicity, dose response, cytotoxicity control for non-replicating M. tuberculosis project (AID 489018); type: functional; conditions: Mycobacterium tuberculosis
Caspase-7 = target: T3, Caspase-7 (Homo sapiens, UniProt P55210); assay: caspase-7 enzyme inhibition, selectivity check – biochemical, DEVD-R110 fluorescence, cherry-pick, selectivity assay for caspase-6 inhibitor project, dose response (AID 743295); type: functional
T3 sequence (P55210 whole entry): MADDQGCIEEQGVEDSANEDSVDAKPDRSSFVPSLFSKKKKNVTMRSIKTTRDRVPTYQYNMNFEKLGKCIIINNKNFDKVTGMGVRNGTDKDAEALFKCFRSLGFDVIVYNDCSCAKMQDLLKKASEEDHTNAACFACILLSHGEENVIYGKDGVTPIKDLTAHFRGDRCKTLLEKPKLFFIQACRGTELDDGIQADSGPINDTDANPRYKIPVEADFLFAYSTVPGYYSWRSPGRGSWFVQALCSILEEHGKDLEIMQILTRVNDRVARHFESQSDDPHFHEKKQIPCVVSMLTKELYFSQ

BJ = assay: BJ-TERT-LT-ST fibroblast viability loss – cell-based, RAS-independent, luminescence, dose response (AID 1935); type: functional; conditions: Homo sapiens;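 further: BJ fibroblasts immortalized with TERT plus LT and ST oncogenes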
Paired box protein Pax-8 = Paired box protein Pax-8 (Homo sapiens, UniProt Q06710); assay: PAX8 transcriptional activity inhibition in RMG-I – RMG-I cells, luciferase, cherry-pick, dose response (AID 687027); type: functional, cell-based;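 further: luciferase reporter driven by Pax8 target thyroperoxidase promoter measured by SteadyGlo luminescence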
Sequence of Paired box protein Pax-8 (Q06710 whole entry): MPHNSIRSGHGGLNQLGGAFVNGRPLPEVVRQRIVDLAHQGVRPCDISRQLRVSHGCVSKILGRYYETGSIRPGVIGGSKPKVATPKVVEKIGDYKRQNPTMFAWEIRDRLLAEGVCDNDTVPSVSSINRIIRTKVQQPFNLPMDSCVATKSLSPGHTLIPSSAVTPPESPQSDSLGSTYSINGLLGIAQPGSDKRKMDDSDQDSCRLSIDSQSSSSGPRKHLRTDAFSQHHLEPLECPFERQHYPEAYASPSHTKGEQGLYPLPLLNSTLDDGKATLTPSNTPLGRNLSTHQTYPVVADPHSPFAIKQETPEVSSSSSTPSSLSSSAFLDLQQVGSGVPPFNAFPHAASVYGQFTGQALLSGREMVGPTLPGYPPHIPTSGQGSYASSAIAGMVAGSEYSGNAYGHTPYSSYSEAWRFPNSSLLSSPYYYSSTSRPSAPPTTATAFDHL

[3] = general cell-killing toxicity readout – plate reader, dry powder samples, cytotoxicity control for PAX8 inhibitor project, dose response (AID 743021); type: functional, cell-based
[4] = NIH-3T3 fibroblast cytotoxicity, dose response, cytotoxicity control, cell-based, fluorescence, Alamar Blue, secondary assay (AID 2327); type: functional;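 further: NIH-3T3 mouse fibroblasts cultured with fluconazole at 8 µg/mL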
HEK293 = assay: membrane integrity loss in HEK cells – cell-based, fluorescence, cytotoxicity control for IDE activator project, dose response (AID 588440); type: functional; conditions: Homo sapiens;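 further: cytotoxicity by LDH release measuring loss of membrane integrity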
[5] = non-specific 3'UTR reporter inhibition in Clone20-Shn3RL – cell-based, Renilla luciferase, cherry-picked, counter-screen for Shn3 inhibitor project, dose response (AID 624133); type: functional
Nonstructural protein 1 = Nonstructural protein 1 (Influenza A virus, UniProt Q194T2); type: functional, Influenza A virus (A/California/07/2009(H1N1))
Sequence of Nonstructural protein 1 (Q194T2 whole entry): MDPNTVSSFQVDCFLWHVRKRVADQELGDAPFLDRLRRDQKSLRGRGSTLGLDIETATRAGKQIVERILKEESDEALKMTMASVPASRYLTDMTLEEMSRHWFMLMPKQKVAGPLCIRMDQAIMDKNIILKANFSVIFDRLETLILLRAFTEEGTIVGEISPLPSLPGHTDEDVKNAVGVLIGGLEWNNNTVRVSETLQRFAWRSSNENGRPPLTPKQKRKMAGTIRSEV

[6] = target: Dual specificity protein kinase CLK2 (Homo sapiens, UniProt P49760); type: functional
[7] = target: Protein kinase C zeta type (Homo sapiens, UniProt Q05513); type: functional;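 further: measured as one member of a broad kinase profiling panel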
[8] = target: Calcium/calmodulin-dependent protein kinase type 1 (Homo sapiens, UniProt Q14012); type: functional
Aurora kinase B = Aurora kinase B (Homo sapiens, UniProt Q96GD4); type: functional
[9] = target: Testis-specific serine/threonine-protein kinase 2 (Homo sapiens, UniProt Q96PF2); type: functional;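 further: part of the Navigating the Kinome panel, target entry STK22B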
[10] = target: Death-associated protein kinase 3 (Homo sapiens, UniProt O43293); type: functional;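 further: measured as one member of a kinome-wide profiling panel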
[11] = target: Serine/threonine-protein kinase D2 (Homo sapiens, UniProt Q9BZL6); type: functional;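 further: measured against PRKD2 as one member of a kinome-wide kinase profiling panel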
[12] = target: Mitogen-activated protein kinase 9 (Homo sapiens, UniProt P45984); type: functional;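 further: value from a kinome panel profiling assay, MAPK9 panel entry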
[13] = target: Maternal embryonic leucine zipper kinase (Homo sapiens, UniProt Q14680); type: functional
[14] = target: Cyclin-dependent kinase 1 (Homo sapiens, UniProt P06493); type: functional;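 further: Kinome-wide panel profiling, with the target listed as panel member CDC2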
[15] = target: MAP kinase-activated protein kinase 3 (Homo sapiens, UniProt Q16644); type: functional;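 further: value comes from a kinome-wide profiling panel in which MAPKAPK3 is one of the panel members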
[16] = target: Vascular endothelial growth factor receptor 1 (Homo sapiens, UniProt P17948); type: functional;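 further: measured within a kinome-wide profiling panel, FLT1 as the panel member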
Sequence of Vascular endothelial growth factor receptor 1 (P17948 whole entry): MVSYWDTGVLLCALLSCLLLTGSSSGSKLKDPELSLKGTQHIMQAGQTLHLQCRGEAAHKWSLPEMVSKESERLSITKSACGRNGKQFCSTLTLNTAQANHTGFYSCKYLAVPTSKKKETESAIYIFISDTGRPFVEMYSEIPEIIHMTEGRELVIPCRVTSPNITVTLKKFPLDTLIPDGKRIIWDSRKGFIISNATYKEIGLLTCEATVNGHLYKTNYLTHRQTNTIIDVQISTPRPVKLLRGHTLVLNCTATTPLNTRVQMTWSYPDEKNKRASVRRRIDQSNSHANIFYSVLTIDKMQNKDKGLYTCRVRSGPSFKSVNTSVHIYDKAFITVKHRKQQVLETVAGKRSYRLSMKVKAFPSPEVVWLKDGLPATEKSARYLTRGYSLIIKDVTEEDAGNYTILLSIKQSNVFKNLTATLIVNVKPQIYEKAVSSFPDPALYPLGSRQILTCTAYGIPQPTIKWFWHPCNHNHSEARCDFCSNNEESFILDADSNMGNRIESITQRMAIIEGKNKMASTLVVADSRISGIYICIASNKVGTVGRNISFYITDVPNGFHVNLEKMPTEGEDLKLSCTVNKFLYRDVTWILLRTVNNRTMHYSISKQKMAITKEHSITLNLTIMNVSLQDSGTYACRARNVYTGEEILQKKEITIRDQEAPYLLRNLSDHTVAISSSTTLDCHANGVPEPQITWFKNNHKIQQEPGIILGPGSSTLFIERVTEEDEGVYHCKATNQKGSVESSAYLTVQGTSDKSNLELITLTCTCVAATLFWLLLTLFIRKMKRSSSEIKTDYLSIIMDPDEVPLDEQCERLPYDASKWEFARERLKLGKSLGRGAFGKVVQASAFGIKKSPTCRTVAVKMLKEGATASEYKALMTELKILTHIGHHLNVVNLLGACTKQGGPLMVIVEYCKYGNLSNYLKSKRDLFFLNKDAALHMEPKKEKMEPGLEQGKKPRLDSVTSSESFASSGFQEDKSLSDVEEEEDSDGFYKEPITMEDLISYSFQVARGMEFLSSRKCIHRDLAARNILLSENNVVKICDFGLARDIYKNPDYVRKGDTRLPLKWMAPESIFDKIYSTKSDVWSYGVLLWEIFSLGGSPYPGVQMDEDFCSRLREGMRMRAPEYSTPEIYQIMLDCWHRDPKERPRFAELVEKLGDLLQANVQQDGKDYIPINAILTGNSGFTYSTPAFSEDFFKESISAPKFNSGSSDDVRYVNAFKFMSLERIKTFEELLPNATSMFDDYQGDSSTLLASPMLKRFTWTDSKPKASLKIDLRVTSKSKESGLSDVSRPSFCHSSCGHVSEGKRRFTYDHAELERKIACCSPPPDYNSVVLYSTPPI

[17] = target: Dual specificity tyrosine-phosphorylation-regulated kinase 3 (Homo sapiens, UniProt O43781); type: functional;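 further: measured as one member of a broad kinase panel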
Insulin receptor = Insulin receptor (Homo sapiens, UniProt P06213); type: functional;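 further: insulin receptor kinase tested as one member of a kinome-wide kinase panel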
Ephrin type-A receptor 2 = Ephrin type-A receptor 2 (Homo sapiens, UniProt P29317); type: functional;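 further: EPHA2 tested as one member of a kinome-wide kinase panel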
[18] = target: Serine/threonine-protein kinase D3 (Homo sapiens, UniProt O94806); type: functional;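 further: determined within a kinase panel screen, with PRKCN as the panel member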
[19] = target: MAP kinase-interacting serine/threonine-protein kinase 2 (Homo sapiens, UniProt Q9HBH9); type: functional
[20] = target: 3-phosphoinositide-dependent protein kinase 1 (Homo sapiens, UniProt O15530); type: functional;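 further: value comes from the Navigating the Kinome panel, PDPK1 member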
[21] = target: Serine/threonine-protein kinase Chk2 (Homo sapiens, UniProt O96017); type: functional;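 further: CHEK2 entry within a kinome-wide screening panel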
[22] = target: Vascular endothelial growth factor receptor 3 (Homo sapiens, UniProt P35916); type: functional;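 further: value from a kinome-wide profiling panel, with FLT4 as the panel member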
Sequence of Vascular endothelial growth factor receptor 3 (P35916 whole entry): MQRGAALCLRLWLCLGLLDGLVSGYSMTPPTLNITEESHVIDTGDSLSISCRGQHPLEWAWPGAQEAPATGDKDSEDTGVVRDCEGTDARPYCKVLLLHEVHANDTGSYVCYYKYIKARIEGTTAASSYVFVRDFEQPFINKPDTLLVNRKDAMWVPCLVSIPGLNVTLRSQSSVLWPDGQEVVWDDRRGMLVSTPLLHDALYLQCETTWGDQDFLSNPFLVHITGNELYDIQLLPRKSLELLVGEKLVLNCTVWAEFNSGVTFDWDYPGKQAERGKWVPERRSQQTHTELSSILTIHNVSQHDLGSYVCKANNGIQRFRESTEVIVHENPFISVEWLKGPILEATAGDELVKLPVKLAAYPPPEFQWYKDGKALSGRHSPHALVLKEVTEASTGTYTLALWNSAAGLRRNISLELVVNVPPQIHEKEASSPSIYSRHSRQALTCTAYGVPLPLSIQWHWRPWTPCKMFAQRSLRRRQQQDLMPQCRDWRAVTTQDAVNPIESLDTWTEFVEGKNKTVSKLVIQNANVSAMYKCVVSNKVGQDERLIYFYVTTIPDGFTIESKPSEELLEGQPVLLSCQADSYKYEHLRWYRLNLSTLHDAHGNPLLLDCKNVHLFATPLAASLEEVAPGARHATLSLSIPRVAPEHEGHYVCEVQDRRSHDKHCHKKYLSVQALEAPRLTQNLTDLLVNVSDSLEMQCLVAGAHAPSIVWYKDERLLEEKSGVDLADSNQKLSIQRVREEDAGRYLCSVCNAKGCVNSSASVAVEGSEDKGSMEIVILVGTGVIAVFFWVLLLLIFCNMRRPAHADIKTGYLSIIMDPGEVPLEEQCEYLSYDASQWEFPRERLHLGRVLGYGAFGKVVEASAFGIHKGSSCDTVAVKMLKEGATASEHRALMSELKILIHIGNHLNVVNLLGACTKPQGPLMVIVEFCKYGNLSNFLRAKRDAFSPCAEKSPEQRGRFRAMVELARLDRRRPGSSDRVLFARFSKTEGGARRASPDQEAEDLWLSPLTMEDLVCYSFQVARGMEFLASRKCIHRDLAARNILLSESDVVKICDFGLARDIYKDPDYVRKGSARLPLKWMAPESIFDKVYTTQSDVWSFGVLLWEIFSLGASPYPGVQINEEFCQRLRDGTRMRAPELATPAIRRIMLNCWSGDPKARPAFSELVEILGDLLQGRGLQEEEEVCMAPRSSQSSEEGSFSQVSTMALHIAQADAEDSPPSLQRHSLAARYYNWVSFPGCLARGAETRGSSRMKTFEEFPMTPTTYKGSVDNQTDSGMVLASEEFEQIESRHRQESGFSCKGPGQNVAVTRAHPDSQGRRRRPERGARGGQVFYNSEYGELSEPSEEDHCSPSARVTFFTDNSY

[23] = target: Non-receptor tyrosine-protein kinase TYK2 (Homo sapiens, UniProt P29597); type: functional
Sequence of Non-receptor tyrosine-protein kinase TYK2 (P29597 whole entry): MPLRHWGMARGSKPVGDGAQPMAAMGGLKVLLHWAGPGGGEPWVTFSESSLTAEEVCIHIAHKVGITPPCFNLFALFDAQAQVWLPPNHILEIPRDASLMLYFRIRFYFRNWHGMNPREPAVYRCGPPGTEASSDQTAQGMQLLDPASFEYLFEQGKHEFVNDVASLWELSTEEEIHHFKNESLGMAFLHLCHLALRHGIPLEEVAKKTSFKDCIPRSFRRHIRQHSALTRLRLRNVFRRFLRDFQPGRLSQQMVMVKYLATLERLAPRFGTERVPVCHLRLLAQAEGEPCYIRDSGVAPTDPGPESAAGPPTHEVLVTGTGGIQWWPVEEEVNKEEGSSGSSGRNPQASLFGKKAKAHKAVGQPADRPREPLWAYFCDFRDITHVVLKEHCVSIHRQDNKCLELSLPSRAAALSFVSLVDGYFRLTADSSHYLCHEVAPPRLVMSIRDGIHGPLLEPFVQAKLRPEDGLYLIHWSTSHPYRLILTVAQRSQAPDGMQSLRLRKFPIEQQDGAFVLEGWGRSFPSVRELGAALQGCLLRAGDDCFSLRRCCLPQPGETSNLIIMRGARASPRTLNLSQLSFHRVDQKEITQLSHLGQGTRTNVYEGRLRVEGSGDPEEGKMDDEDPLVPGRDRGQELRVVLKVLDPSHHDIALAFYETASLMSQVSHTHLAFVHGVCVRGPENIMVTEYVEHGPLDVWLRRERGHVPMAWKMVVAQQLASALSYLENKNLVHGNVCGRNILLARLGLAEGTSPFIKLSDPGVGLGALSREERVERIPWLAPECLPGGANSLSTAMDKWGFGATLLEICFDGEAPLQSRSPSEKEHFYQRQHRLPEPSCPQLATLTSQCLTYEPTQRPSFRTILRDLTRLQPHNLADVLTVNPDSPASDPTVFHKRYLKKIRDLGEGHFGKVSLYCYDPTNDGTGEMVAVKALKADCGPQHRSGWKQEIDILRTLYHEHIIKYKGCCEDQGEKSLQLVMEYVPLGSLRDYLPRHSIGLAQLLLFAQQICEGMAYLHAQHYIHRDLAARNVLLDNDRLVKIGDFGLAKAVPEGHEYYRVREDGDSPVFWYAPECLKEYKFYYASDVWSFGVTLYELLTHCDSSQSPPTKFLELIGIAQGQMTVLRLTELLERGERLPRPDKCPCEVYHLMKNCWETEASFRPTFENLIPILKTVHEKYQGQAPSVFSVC

[24] = target: RAC-gamma serine/threonine-protein kinase (Homo sapiens, UniProt Q9Y243); type: functional
Sequence of RAC-gamma serine/threonine-protein kinase (Q9Y243 whole entry): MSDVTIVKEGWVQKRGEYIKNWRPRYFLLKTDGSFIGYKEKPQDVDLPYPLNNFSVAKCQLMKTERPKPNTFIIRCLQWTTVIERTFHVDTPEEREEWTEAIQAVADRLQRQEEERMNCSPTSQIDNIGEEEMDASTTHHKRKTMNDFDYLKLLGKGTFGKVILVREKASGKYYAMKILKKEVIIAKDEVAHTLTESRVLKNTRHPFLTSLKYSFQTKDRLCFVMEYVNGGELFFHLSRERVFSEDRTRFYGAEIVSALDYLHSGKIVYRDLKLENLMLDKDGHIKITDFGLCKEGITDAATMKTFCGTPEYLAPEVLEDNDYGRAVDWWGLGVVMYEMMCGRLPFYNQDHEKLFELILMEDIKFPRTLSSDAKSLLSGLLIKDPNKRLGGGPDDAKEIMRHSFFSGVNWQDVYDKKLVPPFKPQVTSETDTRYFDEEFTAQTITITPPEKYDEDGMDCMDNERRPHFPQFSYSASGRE

Cc1ccc(C(=O)NC2(O)C(=O)c3ccccc3C2=O)cc1C
IC50 [1]: 4.89 µM (active)
IC50 (SUMO-activating enzyme): 5.71 µM (active)

O=[N+]([O-])c1c(Nc2ccccn2)cc(Cl)c2nonc12
AC50 (Caspase-6): 1.06 µM (active)
CC50 [2]: 16.7 µM (active)
AC50 (Caspase-7): 20.3 µM (active)
EC50 (BJ): 3.95 µM (inconclusive)

CC[C@@H](C)[C@H](CNC)NC[C@@H](Cc1cccc2ccccc12)NCCc1cccc(C(F)(F)F)c1
AC50 (Paired box protein Pax-8): 11.9 µM (active)
AC50 [3]: 27.5 µM (active)
EC50 [4]: > 150 µM (inconclusive)
IC50 (HEK293): 8.67 µM (active)
AC50 [5]: 3.28 µM (active)

Cc1ccc(S(=O)(=O)/N=C2\C=C(Nc3cccc(C(=O)O)c3)C(=O)c3ccccc32)cc1
IC50 (Nonstructural protein 1): 19.9 µM (active)

CC(C)(CO)CNc1nccc(-c2c(-c3ccc(F)cc3)nc3c(CC4CC4)nccn23)n1
Ki [6]: > 7.94 µM (inactive)
Ki [7]: > 7.94 µM (inactive)
Ki [8]: > 5.01 µM (inactive)
Ki (Aurora kinase B): > 6.31 µM (inactive)
Ki [9]: > 1.58 µM (inactive)
Ki [10]: > 1.26 µM (inactive)
Ki [11]: > 10 µM (inactive)
Ki [12]: 0.0316 µM (active)
Ki [13]: > 1.58 µM (inactive)
Ki [14]: > 7.94 µM (inactive)
Ki [15]: > 10 µM (inactive)
Ki [16]: > 0.398 µM (inactive)
Ki [17]: > 6.31 µM (inactive)
Ki (Insulin receptor): > 5.01 µM (inactive)
Ki (Ephrin type-A receptor 2): > 3.16 µM (inactive)
Ki [18]: 5.01 µM (active)
Ki [19]: > 10 µM (inactive)
Ki [20]: > 3.98 µM (inactive)
Ki [21]: > 5.01 µM (inactive)
Ki [22]: > 6.31 µM (inactive)
Ki [23]: > 2 µM (inactive)
Ki [24]: > 10 µM (inactive)
